Experimental data reported in patent US11053212B2, “Benzimidazole derivatives as bromodomain inhibitors” (GLAXOSMITHKLINE INTELLECTUAL PROPERTY DEVELOPMENT LIMITED, priority 2015, dated 2021).
Where a name gives a salt, the structure may show the parent alone.

Assays:
recombinant human CES1 = molecular target: T1, recombinant human CES1 (Homo sapiens, UniProt P23141); experiment: Hydrolysis by hCES-1 (HPLC assay); type: in vitro ADME; details: 50 μM test compound, 50 nM CES1, 20° C., pH 7.5
T1 construct: Recombinant human CES1 (Gly18-Glu563, bearing a polyhistidine tag at the C-terminus); polyhistidine (C); purchased Novoprotein, Summit, N.J., USA C450; host or cells: human cells
T1 sequence (P23141 18-563): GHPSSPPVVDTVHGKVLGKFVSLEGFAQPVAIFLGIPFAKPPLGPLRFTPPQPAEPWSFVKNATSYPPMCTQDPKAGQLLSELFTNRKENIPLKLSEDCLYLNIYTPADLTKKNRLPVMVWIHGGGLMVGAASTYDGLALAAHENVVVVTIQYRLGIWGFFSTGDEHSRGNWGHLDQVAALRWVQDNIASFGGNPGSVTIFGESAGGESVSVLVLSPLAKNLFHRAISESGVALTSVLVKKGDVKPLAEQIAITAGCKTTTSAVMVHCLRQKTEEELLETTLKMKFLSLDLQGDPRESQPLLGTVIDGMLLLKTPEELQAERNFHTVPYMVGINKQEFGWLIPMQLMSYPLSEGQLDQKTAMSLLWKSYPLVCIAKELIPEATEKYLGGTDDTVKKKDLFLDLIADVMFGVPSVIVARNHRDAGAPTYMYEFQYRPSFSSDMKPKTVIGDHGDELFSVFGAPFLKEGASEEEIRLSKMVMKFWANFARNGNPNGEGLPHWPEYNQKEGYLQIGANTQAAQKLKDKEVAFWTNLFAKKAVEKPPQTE
Description: Hydrolysis of ESM-containing BET inhibitors by carboxylesterase 1 (CES1) is one aspect of delivering a targeted molecule. Rates of hydrolysis of certain compounds of the invention by recombinant human CES1 were determined using an HPLC assay. Recombinant human CES1 (Gly18-Glu563, bearing a polyhistidine tag at the C-terminus) expressed in human cells and purified to homogeneity was obtained from Novoprotein, Summit, N.J., USA (catalogue number C450). Reactions were run in 384 well plates at 20° C. in a buffer of 50 mM sodium phosphate pH 7.5/100 mM NaCl.
Assays used a fixed concentration of test compound (50 μM) and CES1 (50 nM) and a time course of the reaction was obtained by stopping samples at increasing times by addition of formic acid to lower the pH. Stopped samples were subsequently analysed by HPLC to resolve product acid from unhydrolysed ester, using a 50×2 mm C18 5 μM reversed-phase column (Phenomenex Gemini) at a flow rate of 1 ml/min using a gradient of acetonitrile in water, containing 0.1% formic acid. Chromatography was monitored using absorbance at 300 nm wavelength. The % of product formed was determined using integrated peak areas and used to determine the initial rate of the reaction. The specific activity of the CES1 against each test compound under these conditions (in units of μM/min/μM) was obtained by dividing the initial rate of the reaction by the CES1 concentration.

BRD4 BD2 = molecular target: T2, BRD4 BD2 (Homo sapiens, UniProt O60885, Y97A); experiment: TR-FRET binding assay, BRD4 BD2 (mutant protein); details: 10 nM mutated bromodomain protein, Alexa Fluor647 ligand at Kd, read-out: mean pIC50 in the BRD4 BD2 assay (converted)
T2 construct: BRD4 (1-477) (Y97A) and (Y390A); made in house; host or cells: E. coli (pET15b vector)
Description: Biological Data Time Resolved Fluorescence Resonance Energy Transfer (TR-FRET) Assay
Binding was assessed using a time resolved fluorescent resonance energy transfer binding assay. This utilises a 6 His purification tag at the N-terminal of the proteins as an epitope for an anti-6 His antibody labeled with Europium chelate (PerkinElmer AD0111) allowing binding of the Europium to the proteins which acts as the donor fluorophore.
In the absence of a competing compound, excitation of the Europium causes the donor to emit at λ618 nm which excites the Alexa labelled bromodomain binding compound leading to an increased energy transfer that is measurable at λ647 nM. In the presence of a sufficient concentration of a compound that can bind these proteins, the interaction is disrupted leading to a quantifiable drop in fluorescent resonance energy transfer.
The binding of compounds of the invention to Bromodomains BRD2, BRD3, BRD4 and BRDT was assessed using mutated proteins to detect differential binding to either Binding Domain 1 (BD1) or Binding Domain 2 (BD2) on the bromodomain. […] Therefore in the final assay conditions, binding of the fluoroligand to the mutated domain cannot be detected and subsequently the assay is suitable to determine the binding of compounds to the single non-mutated bromodomain.
Recombinant Human Bromodomains [(BRD2 (1-473) (Y113A) and (Y386A), BRD3 (1-435) (Y73A) and (Y348A) BRD4 (1-477) (Y97A) and (Y390A) and BRDT (1-397) (Y66A) and (Y309A)] were expressed in E coli cells (in pET15b vector for BRD2/3/4 and in pET28a vector for BRDT) with a 6-His tag at the N-terminal. The His-tagged Bromodomain pellet was resuspended in 50 mM HEPES (pH7.5), 300 mM NaCl, 10 mM imidazole & 1 μl/ml protease inhibitor cocktail and extracted from the E coli cells using sonication and purified using a nickel sepharose high performance column, the proteins were washed and then eluted with a linear gradient of 0-500 mM imidazole with buffer 50 mM HEPES (pH7.5), 150 mM NaCl, 500 mM imidazole, over 20 column volumes. Final purification was completed by Superdex 200 prep grade size exclusion column. Purified protein was stored at −80° C. in 20 mM HEPES pH 7.5 and 100 mM NaCl.
All assay components were dissolved in buffer composition of 50 mM HEPES pH7.4, 50 mM NaCl, 5% Glycerol, 1 mM DTT and 1 mM CHAPS. The final concentration of bromodomain proteins were 10 nM and the Alexa Fluor647 ligand was at Kd. These components were premixed and 5 μl of this reaction mixture was added to all wells containing 50 nl of various concentrations of test compound or DMSO vehicle (0.5% DMSO final) in Greiner 384 well black low volume microtitre plates and incubated in dark for 30 minutes at rt. […] of detection mixture containing 1.5 nM final concentration anti-6His Europium chelate was added to all wells and a further dark incubation of at least 30 minutes was performed. Plates were then read on the Envision plate reader, (⋅ex=317 nm, donor ⋅em=615 nm; acceptor ⋅em=665 nm; Dichroic LANCE dual). Time resolved fluorescent intensity measurements were made at both emission wavelengths and the ratio of acceptor/donor was calculated and used for data analysis. All data was normalized to the mean of 16 high (inhibitor control—Example 11 of WO 2011/054846A1) and 16 low (DMSO) control wells on each plate. A four parameter curve fit of the following form was then applied: y=a+((b−a)/(1+(10^x/10^c)^d) Where ‘a’ is the minimum, […], ‘c’ is the pIC50 and […].

Row | Structure (SMILES) | rate of hydrolysis (specific activity of CES1 against test compound) (recombinant human CES1) | IC50 (BRD4 BD2) [µM]
1 | Cc1cc(-c2nc3cc(CN[C@H](C(=O)OC4CCCC4)[C@@H](C)O)ccc3n2CC2CCOCC2)cn(C)c1=O [Example 156, (2S,3R)-cyclopentyl 2-(((2-(1,5-dimethyl-6-oxo-1,6-dihydropyridin-3-yl)-1-((tetrahydro-2H-pyran-4-yl)methyl)-1H-benzo[d]imidazol-5-yl)methyl)amino)-3-hydroxybutanoate] | no detectable level of hydrolysis | 
2 | Cc1cc(-c2nc3cc(CN[C@H](C(=O)OC4CCCC4)C(C)C)ccc3n2CC2CCOCC2)c[nH]c1=O [Example 16, (S)-cyclopentyl 3-methyl-2-(((2-(5-methyl-6-oxo-1,6-dihydropyridin-3-yl)-1-((tetrahydro-2H-pyran-4-yl)methyl)-1-benzo[d]imidazol-5-yl)methyl)amino)butanoate] | no detectable level of hydrolysis | 
3 | Cc1cc(-c2nc3cc(CN[C@@H](CC(C)C)C(=O)O)ccc3n2CCCO)c[nH]c1=O [Example 21, (S)-2-(((1-(3-hydroxypropyl)-2-(5-methyl-6-oxo-1,6-dihydropyridin-3-yl)-1H-benzo[d]imidazol-5-yl)methyl)amino)-4-methylpentanoic acid, hydrochloride] |  | > 50.1
4 | COC[C@H](C)n1c(-c2cc(C)c(=O)n(C)c2)nc2cc(CN[C@H](C(=O)O[C@H]3CCOC3)[C@@H](C)O)ccc21 [Example 216] | no detectable level of hydrolysis | 
5 | Cc1cc(-c2nc3cc(CN[C@@H](CC(C)C)C(=O)O)ccc3n2C2CCN(C)CC2)c[nH]c1=O [Example 60, (S)-4-methyl-2-(((2-(5-methyl-6-oxo-1,6-dihydropyridin-3-yl)-1-(1-methylpiperidin-4-yl)-1H-benzo[d]imidazol-5-yl)methyl)amino)pentanoic acid, bis-hydrochloride] |  | > 50.1
6 | Cc1cc(-c2nc3cc(CN[C@@H](CC(C)C)C(=O)O)ccc3n2C)c[nH]c1=O [Example 24, (S)-4-methyl-2-(((1-methyl-2-(5-methyl-6-oxo-1,6-dihydropyridin-3-yl)-1H-benzo[d]imidazol-5-yl)methyl)amino)pentanoic acid, hydrochloride] |  | > 50.1
7 | Cc1cc(-c2nc3cc(CN[C@@H](CC(C)C)C(=O)O)ccc3n2CC2CCN(C)CC2)c[nH]c1=O [Example 48, (S)-4-methyl-2-(((2-(5-methyl-6-oxo-1,6-dihydropyridin-3-yl)-1-((1-methylpiperidin-4-yl)methyl)-1H-benzo[d]imidazol-5-yl)methyl)amino)pentanoic acid, bis hydrochloride] |  | > 50.1
8 | Cc1cc(-c2nc3cc(CN[C@H](C(=O)OC4CCCC4)[C@@H](C)O)ccc3n2CC2CCOCC2)c[nH]c1=O [Example 138, (2S,3R)-cyclopentyl 3-hydroxy-2-(((2-(5-methyl-6-oxo-1,6-dihydropyridin-3-yl)-1-((tetrahydro-2H-pyran-4-yl)methyl)-1H-benzo[d]imidazol-5-yl)methyl)amino)butanoate] | no detectable level of hydrolysis | 
9 | Cc1cc(-c2nc3cc(CN[C@H](C(=O)OCC(C)C)[C@@H](C)O)ccc3n2C[C@H]2CN(C)CCO2)cn(C)c1=O (single isomer, unassigned) [Example 162a] | no detectable level of hydrolysis | 
10 | Cc1cc(-c2nc3cc(CN[C@H](C(=O)OC(C)(C)C)[C@@H](C)O)ccc3n2CC2CCOCC2)cn(C)c1=O [Example 212, (2S,3R)-tert-butyl 2-(((2-(1,5-dimethyl-6-oxo-1,6-dihydropyridin-3-yl)-1-((tetrahydro-2H-pyran-4-yl)methyl)-1H-benzo[d]imidazol-5-yl)methyl)amino)-3-hydroxybutanoate] | no detectable level of hydrolysis | 
11 | Cc1cc(-c2nc3cc(CN[C@H](C(=O)O[C@H]4CCOC4)[C@@H](C)O)ccc3n2CC2CCOCC2)cn(C)c1=O [Example 214] | no detectable level of hydrolysis | 
